# Experimental data taken from paper PMC8424300, “Identification of novel microtubule inhibitors effective in fission yeast and human cells and their effects on breast cancer cell lines” (Open Biology, 2021).
# How the values were obtained:
# [1] = biological target: T1, tubulin (colchicine-binding site) (Sus scrofa, UniProt P02550+P02554); experiment: Fluorescence-based colchicine displacement assay; conditions: for fluorescence of the colchicine-tubulin complex: 2 µM tubulin + 2 µM colchicine set 100%
# T1 construct: purchased Cytoskeleton, Inc
# T1 sequence (P02554 whole entry): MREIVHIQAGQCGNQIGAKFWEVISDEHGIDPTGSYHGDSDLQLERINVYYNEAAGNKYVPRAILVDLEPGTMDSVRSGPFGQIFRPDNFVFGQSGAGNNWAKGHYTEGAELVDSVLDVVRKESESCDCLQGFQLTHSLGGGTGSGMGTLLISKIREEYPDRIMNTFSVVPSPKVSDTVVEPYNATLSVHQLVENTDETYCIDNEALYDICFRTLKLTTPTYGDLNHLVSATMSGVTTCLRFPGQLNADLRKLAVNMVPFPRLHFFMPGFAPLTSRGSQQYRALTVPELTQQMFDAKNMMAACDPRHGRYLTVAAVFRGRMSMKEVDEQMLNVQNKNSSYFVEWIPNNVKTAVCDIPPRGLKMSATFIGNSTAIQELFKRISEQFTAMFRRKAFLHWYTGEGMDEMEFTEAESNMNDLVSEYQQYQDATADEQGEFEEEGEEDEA
# T1 sequence (P02550 whole entry): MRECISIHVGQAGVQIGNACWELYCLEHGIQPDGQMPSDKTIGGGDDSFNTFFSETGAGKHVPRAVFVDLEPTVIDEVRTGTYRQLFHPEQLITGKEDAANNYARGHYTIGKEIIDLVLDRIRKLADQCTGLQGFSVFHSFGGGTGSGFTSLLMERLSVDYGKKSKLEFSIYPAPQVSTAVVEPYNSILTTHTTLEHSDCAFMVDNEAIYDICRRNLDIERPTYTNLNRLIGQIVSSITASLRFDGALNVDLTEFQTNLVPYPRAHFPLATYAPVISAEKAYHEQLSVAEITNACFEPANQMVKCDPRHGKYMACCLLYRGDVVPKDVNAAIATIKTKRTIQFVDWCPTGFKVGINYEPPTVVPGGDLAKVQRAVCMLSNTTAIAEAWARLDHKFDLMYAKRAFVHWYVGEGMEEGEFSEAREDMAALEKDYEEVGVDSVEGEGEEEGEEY
# Description: Figure 6. […] Each value represents the mean ± s.e.m. of three independent experiments.
# Reaction mixtures were excited at 380 nm and the emission was measured at 438 nm. Values were exported as Excel files and graphs were generated in Prism V9 GraphPad.
# HeLa cells = experiment: Time-lapse live imaging of mitotic progression and cell fate in HeLa cells (H2B-mCherry, EGFP-α-tubulin); format: cell-based, human
# Description: To determine whether these 34 compounds also induce mitotic abnormalities in human cells, a second screen of these compounds was conducted using HeLa cells. We used time-lapse microscopy to monitor mitotic progression in HeLa cells expressing mCherry-tagged histone H2B to mark chromatin, and EGFP-tagged α-tubulin to monitor microtubules over a 24 h time period in the presence of 2 µM of each of the 34 compounds. The duration of mitosis was determined by live-cell imaging, defined as the period from prophase to cytokinesis based on chromatin and microtubule morphologies (figure 2a). The control DMSO-treated cells progressed through mitosis with a mean mitotic duration of 77 ± 6 min. Among the 34 compounds we tested, nine caused a significant increase in mitotic duration in human cells (figure 2a), ranging from 122 ± 42 min (F15) to 720 ± 53 min (C16). […] As described in the Discussion, we have not carried out a detailed analysis for B8 in this study. To determine whether these cell deaths were caused by apoptosis, caspase activity was assayed for 24 h using time-lapse microscopy in the presence of the 12 compounds. Caspase 3 and Caspase 7 activities were observed 12–24 h after the addition of the compounds (electronic supplementary material, figure S1A). There were also other indications of apoptosis including the morphological chances reminiscing of membrane blebbing, chromatin condensation and cell explosion (electronic supplementary material, figure S1B). Caspase-mediated apoptosis induction is similar to the effects of mitotic arrest caused by anti-microtubule drugs in HeLa cells. […] We conclude that these 12 compounds cause mitotic arrest followed by cell death through apoptotic activation.
# Figure 2. Effect of compounds on mitotic progression in HeLa cell (a). Duration of mitosis was analysed by live imaging of HeLa cells stably expressing H2B-mcherry (red) and EGFP-a tubulin (green) treated in the presence of 0.5 µM (K1, L1, J1) or 2 µM (C16, E2, O12, M2, I15, J3, I2, A15, F15) compound for 24 h and the time in mitosis was measured in 200 cells. DMSO-treated cells are shown, which served as the vehicle control. Show mean as ‘+’. (b). The Cell fate after mitosis (normal division, abnormal division or cell death) was quantitatively assessed after the mitotic arrest observed in (a). (c) Dose-dependent change of phenotypes after mitotic arrest with K1, L1 and J1.
# For live-cell imaging experiments, 200 000 cells were seeded onto glass-bottom culture dishes (MatTek P35GC-1.5-14-C). Cells were grown overnight before the addition of the compound, and the culture media was replaced with fresh media lacking phenol red to limit phototoxicity before imaging.
# Live-cell imaging was performed in a LCV110 U VivaView FL incubator microscope (Olympus) equipped with an X-Cite-exacte illumination source (Excelitas Technologies) and Orca-R2 CCD camera (Hamamatsu Photonics). For screening, images were acquired with a 20 × objective every 15 min for 24–48 h in the differential interference contrast (DIC), m-cherry and GFP channels. For assessment of apoptosis, the cells were monitored every 15 min for 24 h. Individual cells were manually analysed using the CellCognition browser.
# [2] = test system: BT549, CAL51 and MB-157 breast cancer cell lines; experiment: Viability dose-response in breast cancer cell lines; format: cell-based; conditions: Homo sapiens, 96 h; range over three breast cancer cell lines; 4 days of treatment
# Description: (§1) The sensitivity of the inhibitors L1, J3, A15 and M2 were evaluated in three breast cancer cell lines, (BT549, CAL51 and MB-157) and a non-cancer cell line from the human mammary gland, MCF-10A (figure 8). Drug sensitivity was determined by culturing breast cancer cell lines (black lines) and the non-cancer cell line (red line) with a range of concentrations of each compound, and viability was measured after 4 days of treatment in triplicate.
# (§2) Figure 8. Dose–response curves in three cancer cell lines (BT549, CAL51 and MB-157) are shown in black and non-cancer cell line; MCF-10A is shown in red. They were subjected to a dose–response matrix of the tubulin inhibitor, L1, A15, M2 and J3, respectively. Viability relative to the vehicle control was measured […] after treatment. Mean ± s.e.m. for n = 3 experiments is shown.
# (§3) Cells were plated in 384-well plates at a density of 800 cells per well in 22.5 µl of media. After 24 h, 2.5 µl drug was diluted in media and was added to each well. Following 5 days of incubation, viability was assessed using CellTiter-Glo (Promega) according to the manufacture's protocol. Luminescence in each well was measured using a Synergy Neo2 plate reader (BioTek).
# CAL51 cells = experiment: Clonogenic (colony-forming) assay; format: cell-based, human; conditions: 12 h exposure, 9 days growth
# Description: Finally, a clonogenic assay was used to further evaluate the synergy effects between the L1 and Plk1 inhibitors to inhibit colony formation of breast cancer CAL51 cells after a 12 h drug exposure. The percentages of colony formation of cells treated with 0.1 nM BI2536 alone and 0.5 µM L1 alone were 89% and 67%, respectively, while cells treated with both 0.1 nM BI2536 and 0.5 µM L1 together were 2% (figure 10) indicating strong synergetic effects in colony formation.
# Figure 10. Quantification of the colony formation experiments (n = 3) after a 12 h exposure. CAL51 cells were treated with vehicle control, 0.1 nM BI2536, 0.5 µM L1 or 0.1 nM BI2536 and 0.5 µM L1 for 12 h. Cells were grown for 9 days in fresh media after 12 h exposure. Mean ± s.e.m. (n = 3) is shown.
# CAL51 cells were plated at a density of 200 cells per 60 mm tissue culture dish. After 24 h, they were treated with vehicle (DMSO), 0.1 nM BI2538, 0.5 µM L1 or the combination of 0.1 nM BI2538 and 0.5 µM L1, respectively, for 12 h. After an exposure, the cells were washed with warm sterile PBS, and incubated for additional 9 days in fresh media. After the incubation, cells were fixed and stained with a 20% MeOH: 0.01% crystal violet solution for 30 min. Colonies were counted using a stereomicroscope in three independent experiments.
# [3] = test system: fission yeast mutant strains (nda2-KM52, nda3-KM311, cdc25-22, cut14-208, act1-48); experiment: Drug sensitivity of fission yeast mutants spotted on YE medium; format: cell-based, Schizosaccharomyces pombe; conditions: figure S3
# Description: The Schizosaccharomyces pombe SAK933 strain (h90 ade6 leu1 ura4-D18 GFP-atb2≪kanr sid4-mcherry≪hygr caf5::bsdR pap1Δ pmd1Δ mfs1Δ bfr1Δ dnf2 Δ erg5::ura4+) [57] used for the phenotypic screening in this study was grown at 30°C in yeast extract (YE) medium containing adenine, leucine, uridine and histidine. A haploid wild-type strain 972 h^- and its derivative strains were used in the electronic supplementary material, figure S3: nda2-km52, nda3-km311 [58], cdc25-22 [59, 60], cdc14-208 [61] and act1-48 [62] spotted onto YE medium containing the same four supplements above and incubated for 3 days at 30°C.
# MCF-10A = experiment: Viability dose-response in non-cancer mammary cell line; format: cell-based, human
# Description: as §1, §2, §3
smiles,measurement,setting,value
COc1cc(Br)cc2c1OC(c1ccc3c(c1)OCO3)C([N+](=O)[O-])=C2 (stereo not drawn) [L1],fluorescence of the colchicine-tubulin complex,[1]; 5 µM L1,87%
same,fluorescence of the colchicine-tubulin complex,[1]; 10 µM L1,71%
same,colchicine-tubulin interaction,[1]; 50 µM L1,abolished the interaction between colchicine and tubulin complex completely
same,cell fate,HeLa cells; 0.5 µM compound,"arrested cells initially in mitosis, followed by cell death"
same,cell fate,HeLa cells; 2 µM compound,immediately induced cell death independent of the phase of the cell cycle
same,phenotype after mitotic arrest,HeLa cells; 0.1 and 0.25 µM compound,"abnormal multipolar, asymmetric cell divisions, generating 3–4 daughter cells"
same,IC50,[2],2400 to 3100 nM
same,percentage of colony formation,CAL51 cells; 0.1 nM BI2536 and 0.5 µM L1 together,2%
same,percentage of colony formation,CAL51 cells; 0.5 µM L1 alone,67%
same,"drug sensitivity of cdc25-22, cut14-208 and act1-48 mutants",[3],No such drug hypersensitivity
same,IC50,"MCF-10A; Homo sapiens, 96 h, MCF-10A, 4 days of treatment",9.6 µM
same,IC50 in MCF-10A relative to the three breast cancer cell lines,MCF-10A; ratio non-cancer / cancer lines,more than threefold higher
